The results in this text go back to patent publication US7550455B2, “8-(piperazin-1yl)- and 8-([1,4]diazepan-1yl)-xanthines, the preparation thereof and their use as pharmaceutical composition” (Boehringer Ingelheim International GmbH, priority 2003, dated 2009).

One series addresses T1, DPP-IV (Homo sapiens, UniProt P27487).
T1 construct: The cell extract was obtained from the cells solubilized in a buffer; endogenous in cells; host or cells: Caco-2 (human colon carcinoma), differentiated to induce DPP-IV expression; Nonidet-P40 solubilized extract
Kind of series: DPP-IV assay with Caco-2 cell extract as DPP-IV source. The series is classed as biochemical. The following applies: extract of human colon carcinoma cell line Caco-2, AFC substrate 100 μM, 60 minutes, room temperature; read-out: DPP IV inhibition IC50. How it is done: The ability of the substances and their corresponding salts to inhibit DPP-IV activity can be shown in a test set-up in which an extract of the human colon carcinoma cell line Caco-2 is utilized as the DPP-IV source. […] The cell extract was obtained from the cells solubilized in a buffer (10 mM tris HCl, 0.15 M NaCl, 0.04 t.i.u. aprotinin, 0.5% Nonidet-P40, pH 8.0) by centrifugation at 35000 g for 30 minutes at 4° C. (for the removal of cell debris).
The DPP-IV assay was carried out as follows:
50 μl of substrate solution (AFC; AFC is amido-4-trifluoromethylcoumarin), final concentration 100 μM, were introduced into black microtitre plates. 20 μl of assay buffer (final concentrations 50 mM tris HCl pH 7.8, 50 mM NaCl, 1% DMSO) were pipetted in. The reaction was started by addition of 30 μl of solubilized Caco-2 protein (final concentration 0.14 μg of protein per well). […] The reaction was carried out at room temperature; the incubation period was 60 minutes. […] Blank values (corresponding to 0% activity) were obtained in batches without Caco-2 protein (volumes replaced by assay buffer), control values (corresponding to 100% activity) were obtained in batches without addition of substance. […]

The test system of the next series is rats. The series can be described thus: Tolerability after oral administration to rats (behaviour). The format is in vivo. The following applies: oral administration of 10 mg/kg.

T1 sequence (P27487 whole entry): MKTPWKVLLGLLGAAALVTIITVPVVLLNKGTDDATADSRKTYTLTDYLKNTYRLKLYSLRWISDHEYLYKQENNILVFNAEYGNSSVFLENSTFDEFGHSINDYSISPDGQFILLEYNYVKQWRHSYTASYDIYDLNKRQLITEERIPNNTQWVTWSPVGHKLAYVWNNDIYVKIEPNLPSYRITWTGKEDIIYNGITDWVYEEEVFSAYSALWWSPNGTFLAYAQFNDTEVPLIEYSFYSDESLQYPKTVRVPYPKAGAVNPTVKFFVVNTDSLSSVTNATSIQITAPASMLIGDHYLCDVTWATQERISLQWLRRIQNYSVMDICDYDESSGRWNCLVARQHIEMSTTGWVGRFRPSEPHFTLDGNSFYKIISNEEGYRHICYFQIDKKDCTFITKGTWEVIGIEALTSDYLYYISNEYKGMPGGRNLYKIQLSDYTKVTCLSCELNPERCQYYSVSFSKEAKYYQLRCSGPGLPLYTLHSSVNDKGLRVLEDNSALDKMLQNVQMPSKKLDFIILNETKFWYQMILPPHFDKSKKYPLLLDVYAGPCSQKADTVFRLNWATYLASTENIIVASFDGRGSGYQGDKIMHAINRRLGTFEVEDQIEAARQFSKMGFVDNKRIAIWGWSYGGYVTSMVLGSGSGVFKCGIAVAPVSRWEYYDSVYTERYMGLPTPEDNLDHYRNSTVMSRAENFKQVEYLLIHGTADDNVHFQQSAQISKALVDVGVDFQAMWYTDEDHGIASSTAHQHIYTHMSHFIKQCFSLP

Broadly, the IC50 is the point on the concentration scale where inhibition reaches its midpoint. Turning to `CC#CCn1c(N2CCNCC2)nc2c1c(=O)n(Cc1nc(C)cc3ccccc13)c(=O)n2C` [1(1), 1-[(3-Methylisoquinolin-1-yl)methyl]-3-methyl-7-(2-butyn-1-yl)-8-(piperazin-1-yl)-xanthine], the IC50 at DPP-IV was found to be 17 nM.
The same measure, in the same setting: under `CC#CCn1c(N2CCCNCC2)nc2c1c(=O)n(Cc1nc(C)cc3ccccc13)c(=O)n2C` [1(2), 1-[(3-Methylisoquinolin-1-yl)methyl]-3-methyl-7-(2-butyn-1-yl)-8-([1,4]diazepan-1-yl)xanthine] stands 9 nM.
Usually melting point stands for the temperature, or range, at which the solid turns liquid. `CC#CCn1c(N2CCCNCC2)nc2c1c(=O)n(Cc1nc(C)c3ccccc3n1)c(=O)n2C` [1(3), 1-[(4-Methylquinazolin-2-yl)methyl]-3-methyl-7-(2-butyn-1-yl)-8-([1,4]diazepan-1-yl)xanthine] returned a melting point of 188 to 190 °C. The IC50 on DPP-IV was 6 nM.
Regarding `CC#CCn1c(N2CCCNCC2)nc2c1c(=O)n(Cc1nc3ccccc3c3ccccc13)c(=O)n2C` [Example 1(5), 1-[(Phenanthridin-6-yl)methyl]-3-methyl-7-(2-butyn-1-yl)-8-([1,4]diazepan-1-yl)-xanthine], the melting point was in the range of 223 to 225 °C.
On to `CC#CCn1c(N2CCNCC2)nc2c1c(=O)n(Cc1nc(C)c3ccccc3n1)c(=O)n2C` [Example 1, 1-[(4-Methylquinazolin-2-yl)methyl]-3-methyl-7-(2-butyn-1-yl)-8-(piperazin-1-yl)-xanthine], for which the “changes in the behaviour of the animals” value in the series with rats was “not possible to observe any changes in the behaviour of the animals”.
